What is called EC50 is the midpoint of the concentration-response curve. For orientation: logP means the decadic logarithm of the partition coefficient of the neutral form, usually between octanol and water. The low end stands for a more hydrophilic compound, the high end for a more lipophilic compound. One may read the solubility as the dissolved amount per volume that the medium holds. As a reminder, the CC50 is the concentration giving 50% cytotoxicity. A higher CC50 goes with better tolerance by the cells. As a reminder, the IC50 is the point on the concentration scale where inhibition reaches its midpoint.

For data set [1], the system named is Human immunodeficiency virus 1. Description: Antiviral activity against HIV1 NL4-3. Type of data set: functional. Particulars: Human immunodeficiency virus 1, NL4-3.
Data set [2] has as its system Human immunodeficiency virus 1. Put plainly: Antiviral activity against HIV1 harboring E138K mutant infected in human MT4 cells assessed as protection against virus-induced cytopathic effect measured at 5 days post infection by MTT assay. Type of data set: functional, cell-based. The note with it: Human immunodeficiency virus 1, MT4, 120 h. Background: Cytopathic effects are the visible damage that an infection or toxin causes in cultured cells.

Data set [3] can be described thus: n-Octanol/water partition coefficient, log P of the compound after 2 hrs by HPLC method. Type of data set: physicochemical.
Data set [4] deals with Human immunodeficiency virus 1. Put plainly: Fold resistance, ratio of EC50 for HIV1 harboring K103N mutant infected in human MT4 cells to EC50 for wild-type HIV1 3B infected in human MT4 cells. It counts as functional.
The subject of data set [5] is Human immunodeficiency virus 1. Put plainly: Antiviral activity against HIV1 harboring F227L/V106A double mutant infected in human MT4 cells assessed as protection against virus-induced cytopathic effect measured at 5 days post infection by MTT assay. It counts as functional, cell-based. Particulars: Human immunodeficiency virus 1, MT4, 120 h.
In data set [6] the test system is Human immunodeficiency virus 1. Description: Fold resistance, ratio of EC50 for HIV1 harboring Y181C mutant infected in human MT4 cells to EC50 for wild-type HIV1 3B infected in human MT4 cells. Type of data set: functional.
Data set [7] is described as follows: Solubility of the compound in phosphate buffer at pH 7.4 after 2 hrs by UV-HPLC method. Type of data set: physicochemical.
Data set [8] relates to Human immunodeficiency virus 1. Put plainly: Antiviral activity against HIV1 harboring L100I mutant infected in human MT4 cells assessed as protection against virus-induced cytopathic effect measured at 5 days post infection by MTT assay. Type of data set: functional, cell-based. Particulars: Human immunodeficiency virus 1, MT4, 120 h.
The nature of data set [9]: Cytotoxicity against human MT4 cells after 5 days by MTT assay. Type of data set: cell-based. Background: Formazan colour is commonly taken as a measure of viable cells.
Data set [10] has as its system Human immunodeficiency virus 1. Description: Antiviral activity against wild-type HIV1 3B infected in human MT4 cells assessed as protection against virus-induced cytopathic effect measured at 5 days post infection by MTT assay. Type of data set: functional, cell-based. Particulars: Human immunodeficiency virus 1, 3B, MT4, 120 h.
For data set [11], the system named is Human immunodeficiency virus 1. Description: Antiviral activity against HIV1 harboring K103N mutant infected in human MT4 cells assessed as protection against virus-induced cytopathic effect measured at 5 days post infection by MTT assay. It counts as functional, cell-based. Particulars: Human immunodeficiency virus 1, MT4, 120 h.
Data set [12] relates to Human immunodeficiency virus 2. Put plainly: Antiviral activity against HIV-2 ROD infected in human MT4 cells assessed as protection against virus-induced cytopathic effect measured at 5 days post infection by MTT assay. The note with it: Human immunodeficiency virus 2, ISOLATE ROD, MT4, 120 h. It counts as functional, cell-based.
For data set [13], the system named is Human immunodeficiency virus 1. Put plainly: Fold resistance, ratio of EC50 for HIV1 harboring E138K mutant infected in human MT4 cells to EC50 for wild-type HIV1 3B infected in human MT4 cells. Type of data set: functional.
Data set [14] is described as follows: Selectivity index, ratio of CC50 for human MT4 cells to EC50 for wild-type HIV1 3B infected in human MT4 cells. Particulars: read-out: Ratio CC50/EC50. It counts as toxicity, cell-based.
Data set [15] deals with Human immunodeficiency virus 1. Put plainly: Antiviral activity against HIV1 harboring Y181C mutant infected in human MT4 cells assessed as protection against virus-induced cytopathic effect measured at 5 days post infection by MTT assay. Type of data set: functional, cell-based. Particulars: Human immunodeficiency virus 1, MT4, 120 h.
Data set [16] has as its system Human immunodeficiency virus 1. Description: Fold resistance, ratio of EC50 for HIV1 harboring Y188L mutant infected in human MT4 cells to EC50 for wild-type HIV1 3B infected in human MT4 cells. Type of data set: functional.
In data set [17] the test system is Human immunodeficiency virus 1. Description: Antiviral activity against HIV1 RES056 harboring K103N/Y181C double mutant infected in human MT4 cells assessed as protection against virus-induced cytopathic effect measured at 5 days post infection by MTT assay. Type of data set: functional, cell-based. Particulars: Human immunodeficiency virus 1, RES056, MT4, 120 h.

Data set [18] relates to Human immunodeficiency virus 1. Description: Fold resistance, ratio of EC50 for HIV1 harboring L100I mutant infected in human MT4 cells to EC50 for wild-type HIV1 3B infected in human MT4 cells. Type of data set: functional.
The test system of data set [19] is Human immunodeficiency virus 1. Put plainly: Antiviral activity against HIV1 harboring Y188L mutant infected in human MT4 cells assessed as protection against virus-induced cytopathic effect measured at 5 days post infection by MTT assay. It counts as functional, cell-based. Particulars: Human immunodeficiency virus 1, MT4, 120 h.
The nature of data set [20]: Solubility of the compound in phosphate buffer at pH 2 after 2 hrs by UV-HPLC method. It counts as physicochemical.
Data set [21] in a line: Lipophilicity, log P of the compound. The note with it: octanol/water. It counts as physicochemical.
Data set [22] is described as follows: Inhibition of wild-type HIV1 reverse transcriptase assessed as decrease in biotin-dUTP incorporation using poly(A)/oligo(dT)15 as template/primer after 1 hr by ELISA. The arrangement: species or system Human immunodeficiency virus 1. For orientation: ELISA stands for enzyme-linked immunosorbent assay.
Data set [23] can be described thus: Solubility of the compound in 0.1 N HCl at pH 2. Type of data set: physicochemical.
Data set [24] can be described thus: Solubility of the compound in water at pH 7.4. It counts as physicochemical.

Values after ≈ are worked out from the molar mass of the structure shown.

In the case of `Cc1cc(C#N)cc(C)c1Oc1nc(Nc2ccc(C#N)cc2)nc2[nH]ccc12`, in [1], the EC50 came to 0.53 nM.

On to `Cc1cc(/C=C/C#N)cc(C)c1Oc1cc(N)nc(NCCn2ccc(=O)[nH]c2=O)n1`, for which the EC50 is 830 nM in data set [2]; above 298000 nM in data set [5]; 21900 nM in [8]; 170 nM in data set [10]; 530 nM in data set [11]; above 298000 nM in data set [12]. Further, the EC50 in data set [15] was 4820 nM; in data set [17], above 298000 nM; in [19] it was above 298000 nM. The lipophilicity (logP) at 2 h in data set [3] is 1.21. In addition, the “Ratio EC50” value in data set [4] is given as 3; in data set [6] it was 28; in data set [13], 5; in data set [16], above 1753; in data set [18], 129. In addition, the results for the solubility at 2 h in data set [7] and in data set [20] were 0.43 µg/mL (≈ 1.03 µM) and 91.7 µg/mL (≈ 219 µM), respectively. Moreover, the CC50 at 120 h in data set [9] was above 298000 nM. The selectivity ratio in [14] is above 1740.

As to `Cc1cc(C#N)cc(C)c1Oc1nc(Nc2ccc(C#N)cc2)nc(N)c1Br` [ETRAVIRINE], the logP in data set [21] is above 5. Further, the EC50 in [8] is 6.6 nM; in data set [17], 3.4 nM. Also, the IC50 in [22] was 1000 nM. The solubility in data set [23] and in [24] was below 1 µg/mL each time.

(Values after ChEMBL document CHEMBL4014278, “Discovery of uracil-bearing DAPYs derivatives as novel HIV-1 NNRTIs via crystallographic overlay-based molecular hybridization” (Eur J Med Chem, 2017).)
